Literature values as cited in patent publication US20260232602A1, “DRUG DELIVERY SYSTEMS AND METHODS COMPRISING POLYSIALIC ACID AND/OR OTHER POLYMERS” (Universidade de Santiago de Compostela, priority 2017, published 2026).

Details: stated with the drug's Mw and supplier

Row | Compound | Log P
1 | CC(=O)O[C@@]12CO[C@@H]1C[C@H](O)[C@@]1(C)C(=O)[C@H](O)C3=C(C)[C@@H](OC(=O)[C@H](O)[C@@H](NC(=O)OC(C)(C)C)c4ccccc4)C[C@@](O)([C@@H](OC(=O)c4ccccc4)[C@H]21)C3(C)C [docetaxel] | 2.6
2 | C/C(=C\c1csc(C)n1)[C@@H]1C[C@@H]2O[C@]2(C)CCC[C@H](C)[C@H](O)[C@@H](C)C(=O)C(C)(C)[C@@H](O)CC(=O)O1 [patupilone] | 3.7
